# Paper PMC5323330 (SLAS discovery, 2016)
# Assays:
# SERCA = details: cited from earlier work
# cytosolic calcium = details: cited from earlier work
# [1] = test system: endoplasmic reticulum [Ca2+] in HEK293 cells expressing D1ER; assay: D1ER calcium FRET sensor, ER calcium content in live cells; type: cell-based, human; details: 120 min time point
smiles,measurement,setting,value
"Clc1ccccc1C(c1ccccc1)(c1ccccc1)n1ccnc1 [Clotrimazole, clotrimazole]","SERCA function, earlier report",SERCA,inhibit SERCA function
Oc1cc(Cl)ccc1Oc1ccc(Cl)cc1Cl [triclosan],"cytosolic calcium, earlier report",cytosolic calcium,increase cytosolic calcium
Clc1ccc(COC(Cn2ccnc2)c2ccc(Cl)cc2Cl)c(Cl)c1 (stereo not drawn) [Miconazole],ER calcium depletion (decreased D1ER FRET),[1],largest amount of ER calcium depletion
